This passage reports TGI results from PubChem BioAssay (NCI).

Experiment in all cases: growth of human tumour cells (NCI), 48 h
For assay [1], the system named is MDA-N.
Assay [2] relates to 786-0 renal.
The test system of assay [3] is EKVX NSCLC.
Assay [4] has as its system SNB-75 CNS.
Assay [5] concerns UO-31 renal.
In assay [6] the test system is SR leukemia.
The subject of assay [7] is HOP-92 NSCLC.
Assay [8] concerns BT-549 breast.
Assay [9] relates to SK-MEL-5 melanoma.
The subject of assay [10] is PC-3 prostate.
Assay [11] concerns ACHN renal.
The test system of assay [12] is HL-60(TB) leukemia.
Assay [13] has as its system OVCAR-5 ovarian.

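A five-concentration, 48-hour dose response in 96-well plates underlies each endpoint, interpolated linearly between surrounding concentrations. TGI marks complete inhibition of growth.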

On to `CC(=O)NC1COC(COC(=O)CCCCCCCCCCNC(=O)c2ccc([N+](=O)[O-])c3c(=O)c4ccccc4[nH]c23)C(O)C1OC(C)C(=O)NC(C(=O)NC(CCC(N)=O)C(=O)OCc1ccccc1)C(C)C` (centres undefined), for which the TGI is 75 µM in assay [1]; greater than 58.6 µM in [2]; 27.8 µM in assay [3]; 55.6 µM in [4]; 19.1 µM in [5]; 46.5 µM in assay [6]. Further, the TGI is 31.5 µM in assay [7]; greater than 83.1 µM in assay [8]; 57.9 µM in [9]; 26.4 µM in assay [10]; 39.4 µM in [11]; 6.72 µM in assay [12]. The TGI in assay [13] is greater than 81.5 µM.

For the compound `CC(=O)Nc1cc2nc3n(c2cc1C)CCC3OC(C)=O` (centres undefined), the TGI in assay [1], in [2], in assay [3], in assay [4], in [5] and in assay [6] was greater than 100 µM throughout. For the same compound, the TGI in assay [7], in assay [8], in assay [10], in assay [11], in assay [12] and in [13] was greater than 100 µM in each case.

On to `CC(C)Cn1cnc2c(Cl)nc3ccccc3c21`, for which the TGI is greater than 100 µM in assay [1]; greater than 100 µM in [2]; greater than 100 µM in assay [3]; 88 µM in assay [4]; greater than 100 µM in assay [5]; 66.6 µM in [6]. Besides, the TGI in assay [7] is greater than 100 µM; in [8], greater than 100 µM; in [9], 42.2 µM; in assay [10], greater than 100 µM; in assay [11], greater than 100 µM; in assay [12], 62.9 µM. The same compound yielded a TGI in assay [13] greater than 100 µM.

Consider `Cc1cccc(C)c1N=Nc1ccc(O)c(CN(C)C)c1`, for which the TGI in [1], in assay [2], in assay [3], in [4], in [5] and in assay [6] was greater than 100 µM in each case. Also, the TGI in [7] was greater than 100 µM; in [8] it was greater than 100 µM; in assay [9] it was 25.2 µM; in assay [10], greater than 100 µM; in [11], greater than 100 µM; in [12], greater than 100 µM. Further, in [13], the TGI was greater than 100 µM.

On to `O=[N+]([O-])/C(Cl)=C/C(=C1/Nc2ccccc2O1)[N+](=O)[O-]`, for which the TGI in assay [1] is 46 µM; in assay [2], greater than 100 µM; in [3], 40.5 µM; in [4], 35.5 µM; in assay [5], 35.8 µM; in assay [6] it was 47.1 µM. Also, the TGI stood at 63.7 µM in assay [7]; 52 µM in assay [8]; 40.5 µM in assay [9]; 32.3 µM in [10]; 37.5 µM in assay [11]; 37.7 µM in assay [12].

For the compound `OCC1CCCC1O` (centres undefined), the TGI in [1], in [2], in [4], in [5], in assay [6] and in [7] was greater than 100 µM each time. The TGI in assay [8], in assay [9], in assay [10], in assay [11], in assay [12] and in assay [13] was greater than 100 µM in each case.

In the case of `CCC1CCC2c3c([nH]c4ccc(C)cc34)C3C(=O)N(N(C)C)C(=O)C3C2C1` (centres undefined), the TGI in [1] is 4.52 µM; in [2], greater than 60.1 µM; in [3] it was greater than 100 µM; in [5], greater than 100 µM; in [6] it was 48.6 µM; in [7], greater than 100 µM. Besides, the TGI in [8] is greater than 100 µM; in assay [9], greater than 100 µM; in assay [10], greater than 100 µM; in [11] it was greater than 100 µM; in assay [12] it was greater than 46.8 µM; in assay [13], greater than 100 µM.

For `CC(=O)Oc1ccc2cc(-c3ccc(OC(C)=O)c(OC(C)=O)c3)c(=O)oc2c1`, the TGI in assay [1] is greater than 100 µM; in assay [2] it was greater than 100 µM; in assay [3], greater than 100 µM; in assay [5], greater than 100 µM; in assay [6], greater than 100 µM; in [7], 95.2 µM. Also, the TGI in assay [8], in assay [10], in assay [11], in [12] and in assay [13] was greater than 100 µM throughout.

For `Cc1ccc(C(=O)N/N=C(\N=Nc2ccccc2Cl)c2ccc(N(C)C)cc2)cc1`, the TGI in assay [1] was 34.5 µM; in assay [2], greater than 100 µM; in [3], greater than 100 µM; in assay [5], greater than 100 µM; in assay [6], 68.7 µM; in assay [7], greater than 100 µM. Moreover, the TGI in assay [8] is 97.1 µM; in [9], greater than 100 µM; in assay [10], greater than 100 µM; in assay [11], 46.1 µM; in assay [12] it was greater than 100 µM; in [13] it was greater than 100 µM.

As for `CCOC(=O)C(NC(=O)CC)(Nc1ccc(F)cc1F)C(F)(F)F` (centres undefined), the TGI in [1], in assay [2], in assay [3], in [4], in [5] and in assay [6] was greater than 100 µM throughout. Also, the TGI in assay [8], in [9], in assay [10], in [11], in [12] and in assay [13] was greater than 100 µM throughout.

Turning to `Cc1cc(C)nc(NS(=O)(=O)c2ccc(NC(=O)NC(F)(F)F)cc2)n1`, the TGI in assay [1], in assay [2], in assay [3], in assay [4], in assay [5] and in assay [6] was greater than 100 µM each time. For the same compound, the TGI in assay [8], in assay [9], in assay [10], in assay [11], in assay [12] and in [13] was greater than 100 µM throughout.
